Source: patent publication US5342612A, “Compositions for the treatment of mammalian diseases” (priority 1991, dated 1994)

What was measured:
S. aureus = test: Potentiation of lysostaphin bactericidal activity (minimum bactericidal concentration assay, survival of S. aureus); type: cell-based, Staphylococcus aureus; conditions: 18 h
Protocol: Preparation of 50% glycerol and 15% poloxamer 407 NF plus lysostaphin is as follows: The lysostaphin stock of 2.5 mg/mL is thawed and filtered through a 0.22μ filter. [formula]
In a similar fashion, triacetin solutions are also prepared.
Mueller-Hinton Broth containing lysostaphin is prepared as above. Penicillin in Mueller-Hinton Broth is prepared to serve as a control. Starting with a frozen 2.5 mg/mL stock solution the penicillin is diluted as follows: 400 μl of 2.5 mg/mL is placed in 600 μl of Mueller-Hinton Broth to yield a 1000 μg/mL solution. Added to 3744 μl of Mueller-Hinton Broth is 256 μl of the 1000 μg/mL solution to yield a 64 μg/mL solution.
Placed in sterile tubes are 2 mL of the vehicle and lysostaphin; Mueller-Hinton Broth plus lysostaphin; and Mueller-Hinton Broth plus penicillin. Serial two-fold dilutions are performed by hand using 1 mL of the appropriate vehicle as the diluent. Lysostaphin and penicillin dilutions range from 64 μg/mL to 0.25 μg/mL. All combinations are done in duplicate. The Staphylococcus aureus is grown for 5 hours in 5 mL of TSB and 0.1 mL is removed and placed in 9.9 mL of saline. Each tube is inoculated with 100 μl of the diluted culture. Plate counts are performed on the inoculum. All tubes are incubated for 18 hours at 37° C. with constant agitation. Following incubation, each dilution of lysostaphin in the vehicles or Mueller-Hinton Broth and penicillin in Mueller-Hinton Broth is diluted in phosphate buffered saline to 10^-2, 10^-4 and 10^-6.
Plated on a TSA with 10% sheep blood is 100 μl of the undilute and of each dilution. The plates are inverted and incubated for 18 hours. Following incubation, the number of colonies on each plate is counted.
The vehicles which inhibit the growth or are moderately bactericidal to S. aureus by themselves are unable to be evaluated using the MIC procedure. For these vehicles a minimum bactericidal concentration assay (MBC) is performed. This assay in conjunction with the previous MIC data distinguish bacteriostatic effects versus bactericidal effects of the vehicles. Various formulations are mixed with lysostaphin at a final concentration of 32 μg/mL. Ten, serial two- or four-fold dilutions of the lysostaphin are performed in the vehicle and each tube inoculated with a 2-6 x's 106 S. aureus CFU's (bacterial colony-forming units). Samples are removed after 18 hours and plated on blood agar plates.

[1] = system: Staphylococcus aureus (Newbould 305); test: Potentiation of lysostaphin bacteriostatic activity (minimum inhibitory concentration); type: cell-based; conditions: in saline, diluted in MHB
Protocol: Dissolved in 15% w/v poloxamer 407 NF is 512 μg/mL of lysostaphin by adding 487.4 μl of a 2.5 mg/mL aqueous solution to 1512.6 μl of the 15% w/v poloxamer 407 NF in sPBS. The lysostaphin is first filtered through a 0.22 μ filter and the concentration is adjusted (1.19 factor). The poloxamer 407 NF is mixed overnight and filtered through a 0.22μ cellulose acetate filter. In a similar fashion, preparations with other vehicles such as lysostaphin in triacetin are prepared.
Lysostaphin in Mueller-Hinton Broth is run as a control and a 512 μg/mL solution is prepared from the same 2.5 mg/mL solution as the poloxamer 407 NF mixture. Placed in 189 μl of Mueller-Hinton Broth is 61 μl of the 2.5 mg/mL solution.
Placed in the first well of a 12 well row is 100 μl of each mixture and serial two-fold dilutions are performed in Mueller-Hinton Broth through row 12. Following dilution, 50 μl of inoculum is added to each well. Inoculum is prepared by inoculating a tube of trypticase soy broth (TSB) from an overnight trypticase soy agar (TSA) culture containing a 10% sheep blood plate of Staphylococcus aureus (Newbould 305). The tube is incubated for 5 hours at 37° C. with constant agitation. […]
The inhibitory profile as measured by the reduction of the optical density at 650 nm in the presence of the vehicle is then compared to that of lysostaphin diluted in Mueller-Hinton Broth. […]

S. aureus mastitis = conditions: Oldham et al.; in words; cited from earlier work
[2] = system: P388.D1 (Macrophage tumor cell line); test: in vitro; type: cell-based, murine
Protocol: (§1) Cell Lines: A20: B-cell tumor cell line 9C127: T-cell hybridoma cell line LB/62287: B-cell lymphoma cell line P388.D1: Macrophage tumor cell line
(§2) Cell lines (1×10^5 /well; >85% viability) are cultured in 24 well flat bottom plates in RPMI® medium (Gibco Laboratories, Grand Island, N.Y.) supplemented with 10% fetal calf serum, streptomycin (100 μg/mL) and penicillin (100 U/mL). Cultures are incubated (37° C., 10% CO2) with the following concentrations of vehicles:
(§3) c) 1.0%, 0.1% or 0.01% Triacetin or IMWITOR®
(§4) After a 72 hour or 6 hour incubation period, cells are harvested and counted by the Coulter Counter (Northwell Drive, England). Cell viability is determined using a Coulter Channelyzer.
(§5) The relative toxicity of the sample formulations to estimate the relative degree of toxicity for in vivo administration is carried out in vitro with the mammalian cell lines. Various concentrations of the vehicles are incubated for either 6 or 24 hours with the different mammalian cell lines. Immediate toxicity is evaluated at 6 hours by quantitating the number of dead cells in treated wells as compared to the untreated controls. Long term toxicity effects as well as effects which may inhibit cell growth are evaluated by measuring the relative degree of proliferation after an additional 48 hours incubation with ^3 H-thymidine.

[3] = system: A20 (B-cell tumor cell line); test: Toxicity of formulations on mammalian cell lines (cell viability, Coulter); type: cell-based, murine
Protocol: as §1, §2, §3, §4, §5

[4] = system: 9C127 (T-cell hybridoma cell line); test: as above; type: cell-based, murine
Protocol: as §1, §2, §3, §4, §5

[5] = lysostaphin (or penicillin) 1 μg/mL
[6] = lysostaphin (or penicillin) 4 μg/mL

Substance	Survival of S. aureus CFU (Log 10) in Vehicles (S. aureus; lysostaphin 0.25 μg/mL)	Killing of S. aureus (footnote class) (S. aureus; lysostaphin 2 μg/mL)	Survival of S. aureus CFU (Log 10) in Vehicles (S. aureus; lysostaphin 2 μg/mL)	Killing of S. aureus (footnote class) (S. aureus; lysostaphin 8 μg/mL)	Survival of S. aureus CFU (Log 10) in Vehicles (S. aureus; lysostaphin (or penicillin) 0.5 μg/mL)	Killing of S. aureus (footnote class) (S. aureus; [5])	Survival of S. aureus CFU (Log 10) in Vehicles (S. aureus; [5])	Killing of S. aureus (footnote class) (S. aureus; [6])	Survival of S. aureus CFU (Log 10) in Vehicles (S. aureus; [6])	Survival of S. aureus CFU (Log 10) in Vehicles (S. aureus; lysostaphin (or penicillin) 8 μg/mL)	Control MIC of lysostaphin ([1]; control of the PLURONIC F127 line)	Control MIC of lysostaphin ([1]; control of the triacetin line)	Therapeutic efficacy compared with CEFA-LAK (S. aureus mastitis)	Relative Toxicity at 6 Hours [2]	Relative Toxicity at 6 Hours [3]	Relative Toxicity at 6 Hours [4]
Lysostaphin: gene product of Staphylococcus simulans, enzymatically degrading the polyglycine crosslinks of the cell wall	9.7 CFU (Log 10)	^3 (Greater than 99.99% killing of S. aureus)	3.6 CFU (Log 10)	^3 (Greater than 99.99% killing of S. aureus)	8.6 CFU (Log 10)	^2 (Greater than 95% killing of S. aureus)	8.1 CFU (Log 10)	^3 (Greater than 99.99% killing of S. aureus)	4.8 CFU (Log 10)	3.3 CFU (Log 10)	0.125	1.0	not equivalent to the commercially available product CEFA-LAK®			
PLURONIC ® F 127														-	-	-
